{
  "source": "patent US20120328713A1",
  "about": "“Articles of Manufacture with Improved Anti-microbial Properties” (priority 2009, published 2012)",
  "key": {"[1]": {"system": "Staphylococcus aureus (MRSA) 456", "test": "MBEC P&G assay in dilutions of human serum", "format": "cell-based", "method": "(§1) The effects of silver (III) periodate and silver nitrate were tested in different dilutions of human serum (0.001%, 0.01%, 0.1%, 1%, 10%, 50%) using the MBECTM P&G assay against relevant clinical human pathogens Escherichia coli, Staphylococcus aureus (MRSA), and Candida albicans. The challenge time was 4 hours. The tested concentration range for the silver compounds was 500 to 7.8 ppm."}, "[2]": {"system": "Candida albicans ATCC 28367", "test": "MBEC P&G assay in dilutions of human serum", "format": "cell-based", "conditions": "all concentrations of human serum", "method": "as §1"}, "[3]": {"system": "Escherichia coli ATCC 25922", "test": "MBEC P&G assay in dilutions of human serum", "format": "cell-based", "method": "as §1"}, "[4]": {"system": "Escherichia coli (ATCC 25922)", "test": "MBEC P&G assay in dilutions of mucin", "format": "cell-based", "method": "(§2) The effects of silver (III) periodate and silver nitrate in different dilutions of mucin (2.0%, 1.0%, 0.5%, 0.25%, 0.12%, 0.06%) were tested using the MBEC™ P&G assay against Escherichia coli (ATCC 25922)The challenge time was 4 hours. The tested concentration range for both silver compounds was 500 to 7.8 ppm."}, "P. aeruginosa ATCC 27853": {"system": "P. aeruginosa ATCC 27853", "test": "Silver (III) periodate efficacy testing in the presence of Cl-, SO4 2-, and PO4 3-", "format": "cell-based", "conditions": "30 minutes, 1.5-200 ppm", "method": "Silver (III) periodate was tested for efficacy in water, 1% NaCl, 1% K2SO4, and 1% K2HPO4 solutions, and compared with silver nitrate. The test solutions were tested against P. aeruginosa ATCC 27853. The challenge time was 30 minutes. Silver (III) periodate and silver nitrate were tested at range of 1.5-200 ppm."}, "[5]": {"system": "Escherichia coli (ATCC 25922)", "test": "MBEC P&G assay in dilutions of urine", "format": "cell-based", "method": "as §2, with “urine (0.001%, 0.01%, 0.1%, 1%, 10%, 50%)” for “mucin (2.0%, 1.0%, 0.5%, 0.25%, 0.12%, 0.06%) were tested”, “assay were tested” for “assay”"}, "[6]": {"system": "Escherichia coli (ATCC 25922)", "test": "MBEC P&G assay in dilutions of feces", "format": "cell-based", "method": "The challenge time was 4 hours. The tested concentration range for both silver compounds was 500 to 7.8 ppm."}, "[7]": {"system": "bacterial canker (Clavibacter michiganensis pv. michiganensis)", "test": "Field trial, foliar spray against bacterial canker in tomatoes (Example 20)", "format": "in vivo, tomatoes (Lycopersicon esculentum)", "method": "(§3) Silver (III) periodate was tested as a bactericidal foliar spray treatment against bacterial canker (Clavibacter michiganensis pv. michiganensis) in tomatoes (Lycopersicon esculentum).\n(§4) See Example 18 for Preparation of Tomato Seed; Preparation of Field; Seeding; Plot Maintenance; Preparation of Spray Treatment Solutions and Inoculum; Spray Treatment Procedure; and Data Collection."}, "[8]": {"system": "bacterial speck (Pseudomonas syringae pv. tomato)", "test": "Field trial, foliar spray against bacterial speck in tomatoes (Example 18)", "format": "in vivo, tomatoes (Lycopersicon esculentum)", "conditions": "after three treatment sprays"}, "[9]": {"system": "bacterial canker (Clavibacter michiganensis pv. michiganensis)", "test": "Field trial, foliar spray against bacterial canker in tomatoes (Example 19)", "format": "in vivo, tomatoes (Lycopersicon esculentum)", "conditions": "after three treatment sprays; full dose", "method": "as §3, §4"}, "[10]": {"test": "Stability of partially dehydrated sodium diperiodatoargentate in the presence of saline", "format": "physicochemical", "conditions": "compared with the fully hydrated compound", "method": "Fully hydrated sodium diperiodatoargentate was made, ground using a mortar and pestle, and spread in an even thin layer in a pre-heated (120° C.) non-reactive container (e.g. glass or ceramics). The thin layer was necessary to prevent areas of poor heat transfer. The container was then placed in an oven at 120° C. for 15 minutes. After 15 minutes, the sample was removed from the oven and transferred to a sealed container (glass vial), which was then stored in a dessicator in the dark at room temperature to prevent the material from adsorbing water.\nRelative to the fully hydrated sodium diperiodatoargentate, the partially dehydrated sodium diperiodatoargentate is darker in color and is a much finer powder (which will be advantageous for incorporation into polymers)."}, "[11]": {"system": "Pseudomonas aeruginosa biofilms", "test": "Log reduction and MBEC assays on biofilms", "format": "cell-based", "conditions": "4 hours"}},
  "data": [
    {"compound": "O=[N+]([O-])[O-].[Ag+]", "note": "[silver nitrate, reference compound]", "values": [
      {"measurement": "log reduction compared with the other compound", "setting": "[1]; 0.001% human serum, 500 ppm", "result": "higher log reduction only at 500 ppm with a two magnitude difference"},
      {"measurement": "killing activity", "setting": "[1]; 0.1% and 0.01% human serum", "result": "no significant killing activity"},
      {"measurement": "log reduction, trend with compound concentration", "setting": "[2]", "result": "Log reductions decreased with a decrease in concentration of silver nitrate"},
      {"measurement": "log reduction, trend with compound concentration", "setting": "[3]; human serum 1% or 0.001%", "result": "no effect on the log reduction"},
      {"measurement": "log reduction, trend with compound concentration", "setting": "[3]; human serum 50%, 10%, and 0.1%", "result": "log reductions decreased significantly with a decrease in the concentration of silver nitrate"},
      {"measurement": "log reduction compared with the other compound", "setting": "[4]; mucin 0.5% and lower, higher compound concentrations", "result": "better log reductions"},
      {"measurement": "log reduction, trend with compound concentration", "setting": "[4]; regardless of the concentration of mucin", "result": "the lower the concentration of silver nitrate, the lower the log reduction was"},
      {"measurement": "killing", "setting": "P. aeruginosa ATCC 27853; in the presence of 1% NaCl or 1% K2HPO4", "result": "unable to kill at any of the tested concentrations"},
      {"measurement": "killing", "setting": "P. aeruginosa ATCC 27853; no salt and 1% K2SO4", "result": "effective at killing all the cells for the entire challenge range"},
      {"measurement": "MBC cut-off point", "setting": "[5]; 50.0% urine", "result": 31.25, "unit": "ppm"},
      {"measurement": "MBC cut-off point", "setting": "[5]; 100% urine", "result": 62.5, "unit": "ppm"},
      {"measurement": "log reduction", "setting": "[5]; 500 and 250 ppm, all tested concentrations of urine", "result": "approximately equal log reductions"},
      {"measurement": "log reduction compared with the other compound", "setting": "[5]; compound concentrations of 125 ppm and below", "result": "larger log reduction in the higher concentrations of urine"},
      {"measurement": "MBC, effective level", "setting": "[6]; 1.56% feces", "result": "< 7.8", "unit": "ppm"},
      {"measurement": "MBC, effective level", "setting": "[6]; 3.13% feces", "result": "< 7.8", "unit": "ppm"},
      {"measurement": "MBC, effective level", "setting": "[6]; 6.25% feces", "result": "< 7.8", "unit": "ppm"},
      {"measurement": "MBC, effective level", "setting": "[6]; 12.5% feces", "result": 15.6, "unit": "ppm"},
      {"measurement": "MBC, effective level", "setting": "[6]; 25% feces", "result": 31.25, "unit": "ppm"},
      {"measurement": "MBC, effective level", "setting": "[6]; 50% feces", "result": 62.5, "unit": "ppm"},
      {"measurement": "MBEC effectiveness compared with silver(III) periodate", "setting": "[6]; in the presence of feces", "result": "more effective than silver(III) periodate in higher concentrations of feces but less effective in lower concentrations"}
    ]},
    {"compound": "oxysilver nitrate [reference compound]", "values": [
      {"measurement": "disease severity on foliage", "setting": "[7]; after three treatment sprays, low and high dose", "result": "best at reducing disease severity on foliage"},
      {"measurement": "disease severity on foliage", "setting": "[7]; after two treatment sprays, high dose", "result": "best at reducing disease severity on foliage"},
      {"measurement": "disease severity on foliage", "setting": "[8]", "result": "best at reducing disease severity on foliage"},
      {"measurement": "disease severity on foliage", "setting": "[9]", "result": "best at reducing disease severity on foliage"}
    ]},
    {"compound": "sodium diperiodatoargentate", "values": [
      {"measurement": "stability in the presence of saline", "setting": "[10]", "result": "same level of stability as the fully hydrated compound"},
      {"measurement": "kill of biofilms", "setting": "[11]; 200 ppm, p<0.05", "result": "significantly higher kill than the fully hydrated sodium diperiodatoargentate"},
      {"measurement": "kill of biofilms", "setting": "[11]; all other concentrations (1.56 ppm to 200 ppm range)", "result": "no significant differences"}
    ]}
  ]
}
